# Laboratory results reported in patent US20230339854A1, “Negative Allosteric Modulation of GluN3-Containing N-Methyl-D-Aspartate Receptors” (Emory University, priority 2020, published 2023).
# Target: T1, human GluN1^FA,TL/GluN3A receptors (Homo sapiens, UniProt Q8TCU5)
# T1 construct: Human GluN3A (NP_597702.2) and rat GluN3B (NP_579842.2) were synthesized and subcloned into SP6 plasmids; expressed in transfected cells; host or cells: Xenopus laevis oocytes, cRNA injection (GluN1:GluN3 1:3)
# Assay: Two-electrode voltage-clamp recordings of GluN1^FA,TL/GluN3A receptors in Xenopus oocytes
# Format: cell-based
# Settings: read-out: hGluN1^FA,TL/hGluN3A (100 × Idrug/Icontrol at 30 μM drug)
# Source text: cDNA encoding human wild-type (WT) GluN1-1a (GenBank accession numbers NP_015566, hereafter GluN1) and rat GluN1-1a (NP_058706.1) were synthesized and subcloned into pGEMHE plasmid; some experiments used the rat splice variant GluN1-4a (NP_001257531.1). Human GluN3A (NP_597702.2) and rat GluN3B (NP_579842.2) were synthesized and subcloned into SP6 plasmids. For most experiments, human GluN1 was co-expressed with human GluN3A, except for mutagenesis experiments where rat GluN1 was co-expressed with human GluN3A. Rat GluN1-4a was always expressed with rat GluN3B.
# Defolliculated Xenopus laevis oocytes (stage V-VI) were obtained from Ecocyte BioScience (Austin, Texas), or prepared from commercially available Xenopus ovaries (Xenopus 1, Dexter, MI) as previously described (Hansen, et al., Mol. Pharmacol., 2013). A Drummond Nanoject II (Broomall, PA) was used to inject oocytes with cRNAs encoding GluN1 and GluN3 at a 1:3 ratio in RNase-free water. The cRNA was diluted as needed to give responses with amplitudes ranging between 200-2000 nA (0.2-10 ng total cRNA). Following cRNA injection, the oocytes were stored at 15-19° C. in Barth's solution that contained (in mM) 88 NaCl, 2.4 NaHCO3, 1 KCl, 0.33 Ca(NO3)2, 0.41 CaCl2), 0.82 MgSO4, and 5 Tris-HCl (pH 7.4 with NaOH), supplemented with 1 μg/ml streptomycin (Invitrogen, Carlsbad, CA) and 100 μg/ml gentamicin (Fisher Scientific, Pittsburgh, PA). Recordings were performed 2-5 days following cRNA microinjection at room temperature (23° C.) using a two-electrode voltage-clamp amplifier (OC725, Warner Instrument, Hamilton, CT). The signal was low-pass filtered at 10-20 Hz (4-pole, −3 dB Bessel) and digitized at the Nyquist rate using PCI-6025E or USB-6212 BNC data acquisition boards (National Instruments, Austin, TX) using EasyOocyte (http://www.easyoocyte.io/). Oocytes were placed in a custom-made chamber and continuously perfused (2.5 ml/min) with oocyte recording solution containing (in mM) 90 NaCl, 1 KCl, 10 HEPES, 0.5-1.0 BaCl2, and 0.01 EDTA (pH 7.4 with NaOH). Solutions were applied by gravity, and solution exchange was controlled through a rotary valve (Hamilton, Reno, NV). Recording electrodes were filled with 0.3-3.0 M KCl, and current responses were recorded at a holding potential of −40 mV.
# Response (%)=(100−minimum)/(1+([concentration]/IC50)^nH)+minimum (2) • where nH is the Hill slope, IC50 is the concentration that produces a half-maximal effect, and minimum is the degree of residual inhibition at a saturating concentration of the negative allosteric modulator.
# The afore-referenced compounds were screened in the same assay as EU1180-438 to determine their effects on hGluN1^FA,TL/hGluN3A receptors. Selected compounds that inhibited by more than 20% at the concentration at which they were initially evaluated (either 10 or 30 μM) were analyzed further, and a dose-response curve was generated to determine their IC50 values.
# T1 sequence (Q8TCU5 24-1115, other chains not shown): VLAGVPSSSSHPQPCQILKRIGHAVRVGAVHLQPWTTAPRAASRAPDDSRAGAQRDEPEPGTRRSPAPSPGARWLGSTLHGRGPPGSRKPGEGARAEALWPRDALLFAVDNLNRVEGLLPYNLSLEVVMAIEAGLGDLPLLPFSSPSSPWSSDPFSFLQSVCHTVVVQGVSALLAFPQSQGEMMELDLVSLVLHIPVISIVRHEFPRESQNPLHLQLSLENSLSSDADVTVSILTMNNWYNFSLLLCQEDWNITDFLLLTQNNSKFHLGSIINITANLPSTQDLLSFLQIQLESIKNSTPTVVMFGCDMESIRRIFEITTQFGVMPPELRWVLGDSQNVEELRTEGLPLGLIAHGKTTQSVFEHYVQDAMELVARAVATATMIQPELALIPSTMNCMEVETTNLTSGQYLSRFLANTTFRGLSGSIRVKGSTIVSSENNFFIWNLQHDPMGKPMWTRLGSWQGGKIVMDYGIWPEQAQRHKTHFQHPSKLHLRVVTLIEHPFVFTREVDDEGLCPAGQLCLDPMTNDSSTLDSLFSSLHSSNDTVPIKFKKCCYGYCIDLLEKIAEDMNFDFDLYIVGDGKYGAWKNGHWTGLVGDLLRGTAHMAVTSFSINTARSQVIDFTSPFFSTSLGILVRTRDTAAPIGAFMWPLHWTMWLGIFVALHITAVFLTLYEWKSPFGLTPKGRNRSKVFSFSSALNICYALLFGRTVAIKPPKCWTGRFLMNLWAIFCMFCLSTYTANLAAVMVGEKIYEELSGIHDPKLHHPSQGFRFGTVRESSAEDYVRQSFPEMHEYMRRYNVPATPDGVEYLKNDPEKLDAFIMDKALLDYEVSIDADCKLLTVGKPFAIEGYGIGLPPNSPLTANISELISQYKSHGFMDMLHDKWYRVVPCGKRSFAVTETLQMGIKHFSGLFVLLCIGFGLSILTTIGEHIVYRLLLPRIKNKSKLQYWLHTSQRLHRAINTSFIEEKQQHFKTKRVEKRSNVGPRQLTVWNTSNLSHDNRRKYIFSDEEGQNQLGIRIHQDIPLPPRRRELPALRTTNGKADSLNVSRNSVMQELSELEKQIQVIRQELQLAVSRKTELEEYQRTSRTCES
row,SMILES,remaining activity at 30 µM
1,"CC(C)Oc1ccc(C(COc2ccc(OC(F)(F)F)cc2)N2Cc3cc(F)ccc3C2=O)cc1 (centres unmarked) [EU1180-544, 5-fluoro-2-(1-(4-isopropoxyphenyl)-2-(4-(trifluoromethoxy)phenoxy)ethyl)isoindolin-1-one]",98%
2,"COc1ccc(OCC(c2c(F)cc(OC)cc2F)N2Cc3ccc(C(F)(F)F)cc3C2=O)cc1 (centres unmarked) [EU1180-546, 2-(1-(2,6-Difluoro-4-methoxyphenyl)-2-(4-methoxyphenoxy)ethyl)-6-(trifluoromethyl)isoindolin-1-one]",96%
3,"COc1ccc(OCC(c2c(F)cc(OC)cc2F)N2Cc3cc(Cl)ccc3C2=O)cc1 (centres unmarked) [EU1180-547, 5-Chloro-2-(1-(2,6-difluoro-4-methoxyphenyl)-2-(4-methoxyphenoxy)ethyl)isoindolin-1-one]",98%
4,"COc1ccc(OCC(c2c(F)cc(OC)cc2F)N2Cc3cc(Br)ccc3C2=O)cc1 (centres unmarked) [EU1180-549, 5-Bromo-2-(1-(2,6-difluoro-4-methoxyphenyl)-2-(4-methoxyphenoxy)ethyl)isoindolin-1-one]",95%
5,"COc1ccc(OCC(c2c(F)cc(OC)cc2F)N2Cc3cc(F)ccc3C2=O)cc1 (centres unmarked) [EU1180-551, 2-(1-(2,6-Difluoro-4-methoxyphenyl)-2-(4-methoxyphenoxy)ethyl)-5-fluoroisoindolin-1-one]",92%
6,"COc1ccc(OCC(c2ccc(OC(C)C)cc2)N2Cc3ccc(C(F)(F)F)cc3C2=O)cc1 (centres unmarked) [EU1180-558, 2-(1-(4-isopropoxyphenyl)-2-(4-methoxyphenoxy)ethyl)-6-(trifluoromethyl)isoindolin-1-one]",98%
7,"COc1ccc(OCC(c2ccc(OC(C)C)cc2)N2Cc3cc(F)ccc3C2=O)cc1 (centres unmarked) [EU1180-561, 5-fluoro-2-(1-(4-isopropoxyphenyl)-2-(4-methoxyphenoxy)ethyl)isoindolin-1-one]",88%
8,"COc1ccc(OCC(c2ccc(OC(C)C)cc2)N2Cc3cc(Br)ccc3C2=O)cc1 (centres unmarked) [EU1180-563, 5-bromo-2-(1-(4-isopropoxyphenyl)-2-(4-methoxyphenoxy)ethyl)isoindolin-1-one]",98%
9,"CC(C)Oc1ccc(C(COc2ccc(C(F)(F)F)cc2)N2Cc3ccccc3C2=O)cc1 (centres unmarked) [EU1180-571, 2-(1-(4-isopropoxyphenyl)-2-(4-(trifluoromethyl)phenoxy)ethyl)isoindolin-1-one]",94%
10,"CC(C)Oc1ccc(C(COc2ccc(C(F)(F)F)cc2)N2Cc3ccc(Cl)cc3C2=O)cc1 (centres unmarked) [EU1180-573, 6-chloro-2-(1-(4-isopropoxyphenyl)-2-(4-(trifluoromethyl)phenoxy)ethyl)isoindolin-1-one]",100%
11,"CC(C)Oc1ccc(C(COc2ccc(C(F)(F)F)cc2)N2Cc3cc(Cl)ccc3C2=O)cc1 (centres unmarked) [EU1180-574, 5-chloro-2-(1-(4-isopropoxyphenyl)-2-(4-(trifluoromethyl)phenoxy)ethyl)isoindolin-1-one]",91%
12,"CC(C)Oc1ccc(C(COc2ccc(C(F)(F)F)cc2)N2Cc3ccc(F)cc3C2=O)cc1 (centres unmarked) [EU1180-575, 6-fluoro-2-(1-(4-isopropoxyphenyl)-2-(4-(trifluoromethyl)phenoxy)ethyl)isoindolin-1-one]",76%
13,"CC(C)Oc1ccc(C(COc2ccc(C(F)(F)F)cc2)N2Cc3cc(F)ccc3C2=O)cc1 (centres unmarked) [EU1180-576, 5-fluoro-2-(1-(4-isopropoxyphenyl)-2-(4-(trifluoromethyl)phenoxy)ethyl)isoindolin-1-one]",104%
14,"CCOc1ccc(OCC(c2ccc(OC(C)C)cc2)N2Cc3ccc(C(F)(F)F)cc3C2=O)cc1 (centres unmarked) [EU1180-587, 2-(2-(4-ethoxyphenoxy)-1-(4-isopropoxyphenyl)ethyl)-6-(trifluoromethyl)isoindolin-1-one]",98%
15,"CCOc1ccc(OCC(c2ccc(OC(C)C)cc2)N2Cc3ccc(Cl)cc3C2=O)cc1 (centres unmarked) [EU1180-588, 6-chloro-2-(2-(4-ethoxyphenoxy)-1-(4-isopropoxyphenyl)ethyl)isoindolin-1-one]",67%

# More lines, now with the values ahead:
row,remaining activity at 30 µM,SMILES
1,98%,"CC(C)Oc1ccc(C(COc2ccc(OC(F)(F)F)cc2)N2Cc3ccc(F)cc3C2=O)cc1 (centres unmarked) [EU1180-542, 6-fluoro-2-(1-(4-isopropoxyphenyl)-2-(4-(trifluoromethoxy)phenoxy)ethyl)isoindolin-1-one]"
2,74%,"COc1ccc(OCC(c2c(F)cc(OC)cc2F)N2Cc3ccccc3C2=O)cc1 (centres unmarked) [EU1180-545, 2-(1-(2,6-Difluoro-4-methoxyphenyl)-2-(4-methoxyphenoxy)ethyl)isoindolin-1-one]"
3,90%,"COc1ccc(OCC(c2c(F)cc(OC)cc2F)N2Cc3ccc(Cl)cc3C2=O)cc1 (centres unmarked) [EU1180-548, 6-Chloro-2-(1-(2,6-difluoro-4-methoxyphenyl)-2-(4-methoxyphenoxy)ethyl)isoindolin-1-one]"
4,93%,"COc1ccc(OCC(c2c(F)cc(OC)cc2F)N2Cc3ccc(Br)cc3C2=O)cc1 (centres unmarked) [EU1180-550, 6-Bromo-2-(1-(2,6-difluoro-4-methoxyphenyl)-2-(4-methoxyphenoxy)ethyl)isoindolin-1-one]"
5,70%,"COc1ccc(OCC(c2c(F)cc(OC)cc2F)N2Cc3ccc(F)cc3C2=O)cc1 (centres unmarked) [EU1180-552, 2-(1-(2,6-Difluoro-4-methoxyphenyl)-2-(4-methoxyphenoxy)ethyl)-6-fluoroisoindolin-1-one]"
6,101%,"CC(C)Oc1ccc(C(COc2ccc(OC(F)(F)F)cc2)N2Cc3ccc(Br)cc3C2=O)cc1 (centres unmarked) [EU1180-553, 6-bromo-2-(1-(4-isopropoxyphenyl)-2-(4-(trifluoromethoxy)phenoxy)ethyl)isoindolin-1-one]"
7,101%,"CC(C)Oc1ccc(C(COc2ccc(OC(F)(F)F)cc2)N2Cc3cc(Br)ccc3C2=O)cc1 (centres unmarked) [EU1180-554, 5-bromo-2-(1-(4-isopropoxyphenyl)-2-(4-(trifluoromethoxy)phenoxy)ethyl)isoindolin-1-one]"
8,96%,"COc1ccc(OCC(c2ccc(OC(C)C)cc2)N2Cc3cc(Cl)ccc3C2=O)cc1 (centres unmarked) [EU1180-559, 5-chloro-2-(1-(4-isopropoxyphenyl)-2-(4-methoxyphenoxy)ethyl)isoindolin-1-one]"
9,23%,"COc1ccc(OCC(c2ccc(OC(C)C)cc2)N2Cc3ccc(F)cc3C2=O)cc1 (centres unmarked) [EU1180-560, 6-fluoro-2-(1-(4-isopropoxyphenyl)-2-(4-methoxyphenoxy)ethyl)isoindolin-1-one]"
10,98%,"COc1ccc(OCC(c2ccc(OC(C)C)cc2)N2Cc3ccc(Br)cc3C2=O)cc1 (centres unmarked) [EU1180-562, 6-bromo-2-(1-(4-isopropoxyphenyl)-2-(4-methoxyphenoxy)ethyl)isoindolin-1-one]"
11,96%,"COc1ccc(OCC(c2ccc(OC(C)C)cc2)N2Cc3ccc(Cl)cc3C2=O)cc1 (centres unmarked) [EU1180-564, 6-chloro-2-(1-(4-isopropoxyphenyl)-2-(4-methoxyphenoxy)ethyl)isoindolin-1-one]"
12,91%,"CC(C)Oc1ccc(C(COc2ccc(C(F)(F)F)cc2)N2Cc3ccc(C(F)(F)F)cc3C2=O)cc1 (centres unmarked) [EU1180-572, 2-(1-(4-isopropoxyphenyl)-2-(4-(trifluoromethyl)phenoxy)ethyl)-6-(trifluoromethyl)isoindolin-1-one]"
13,108%,"CC(C)Oc1ccc(C(COc2ccc(C(F)(F)F)cc2)N2Cc3ccc(Br)cc3C2=O)cc1 (centres unmarked) [EU1180-577, 6-bromo-2-(1-(4-isopropoxyphenyl)-2-(4-(trifluoromethyl)phenoxy)ethyl)isoindolin-1-one]"
14,118%,"CC(C)Oc1ccc(C(COc2ccc(C(F)(F)F)cc2)N2Cc3cc(Br)ccc3C2=O)cc1 (centres unmarked) [EU1180-578, 5-bromo-2-(1-(4-isopropoxyphenyl)-2-(4-(trifluoromethyl)phenoxy)ethyl)isoindolin-1-one]"
